Source: US12428394B2, “2,4-disubstituted pyrimidine derivative, preparation method therefor and use thereof” (CHENGDU ZENITAR BIOMEDICAL TECHNOLOGY CO., LTD., priority 2019, dated 2025)

Legend:
SET-2 cells (JAK2 V617F) = assay: Inhibition of cell proliferation by MTT experiment, SET-2; assay type: cell-based; conditions: Homo sapiens, SET-2, 72 h, read-out: IC50 value on cell proliferation inhibition, SET-2 (V617F)
Outline: (§1)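 MTT assay in MV4-11, MOLM-13 (FLT3-ITD) and SET-2 (JAK2 V617F) cells at 10,000–15,000 cells/well in IMDM with 10% FBS. Cells are exposed to compound for 72 h at 37 °C, then to MTT for 1–3 h. IC50 is fitted from inhibition rates across concentrations.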

FLT3 = biological target: T1, FLT3 (Homo sapiens, UniProt P36888); assay: In vitro kinase activity experiment, FLT3; assay type: biochemical
T1 construct: purchased Eurofins
T1 sequence (P36888 27-993): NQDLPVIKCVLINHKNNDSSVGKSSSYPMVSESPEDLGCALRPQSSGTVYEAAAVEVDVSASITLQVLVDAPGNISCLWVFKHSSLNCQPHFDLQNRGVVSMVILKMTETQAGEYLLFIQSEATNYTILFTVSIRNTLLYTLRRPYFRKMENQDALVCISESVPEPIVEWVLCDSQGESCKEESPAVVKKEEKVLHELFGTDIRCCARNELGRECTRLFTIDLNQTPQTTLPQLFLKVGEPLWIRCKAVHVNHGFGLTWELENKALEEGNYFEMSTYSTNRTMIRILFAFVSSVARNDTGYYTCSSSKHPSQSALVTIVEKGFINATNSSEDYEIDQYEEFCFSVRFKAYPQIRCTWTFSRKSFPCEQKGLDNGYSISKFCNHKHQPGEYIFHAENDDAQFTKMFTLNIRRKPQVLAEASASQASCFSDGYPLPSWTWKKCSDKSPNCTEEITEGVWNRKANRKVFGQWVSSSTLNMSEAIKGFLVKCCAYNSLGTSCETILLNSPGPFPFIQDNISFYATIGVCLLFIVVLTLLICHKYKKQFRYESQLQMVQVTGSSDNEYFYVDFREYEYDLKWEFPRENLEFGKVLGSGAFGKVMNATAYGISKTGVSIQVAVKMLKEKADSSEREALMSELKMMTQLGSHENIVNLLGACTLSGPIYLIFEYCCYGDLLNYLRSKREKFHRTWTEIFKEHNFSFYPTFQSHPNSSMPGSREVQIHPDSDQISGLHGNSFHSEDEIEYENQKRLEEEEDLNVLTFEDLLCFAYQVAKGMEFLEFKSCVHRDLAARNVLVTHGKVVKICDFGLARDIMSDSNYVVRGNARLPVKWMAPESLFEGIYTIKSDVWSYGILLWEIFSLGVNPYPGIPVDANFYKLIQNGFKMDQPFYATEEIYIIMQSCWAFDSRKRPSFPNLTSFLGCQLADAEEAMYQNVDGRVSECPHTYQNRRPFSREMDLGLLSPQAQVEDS
Outline: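 Reactions began on MgATP addition after the kinase, substrate, γ33P-ATP, 10 mM magnesium acetate and compound series were mixed in MOPS buffer pH 7.0 with EDTA and MnCl2. After 40 min at room temperature, phosphate quench, filter-mat capture and washing, incorporated 33P was measured by scintillation counting.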

[1] = test system: MV4-11 cells (FLT3-ITD+/+); assay: Inhibition of cell proliferation by MTT experiment, MV4-11; assay type: cell-based, human; conditions: Homo sapiens, MV4-11, 72 h, read-out: IC50 value on cell proliferation inhibition, MV4-11 FLT3-ITD+/+
Outline: as §1

[2] = test system: JAK2/FLT3 signaling pathway related proteins; assay: Immunoblot experiment on JAK2/FLT3 signaling pathway related proteins in MV4-11 and SET-2 cells; assay type: cell-based; conditions: different concentrations
Experimental: The cells were subjected to SDS-PAGE gel electrophoresis with 8%-16% gradient gels, and constant flow membrane was carried out. The cells were blocked with 5% skim milk, and the primary antibody FLT3 (CST, 3462S), […] (CST, 3464S), STAT5 (CST, 9363S), […] (Abcam, ab32364), JAK2 (Proteintech, 02802), p-JAK2 (Abcam, ab32101), JAK1 (Santa Cruz Biotechnology, sc-136225), […] (Santa Cruz Biotechnology, sc-101716), GAPDH (Abways, AB0037), Rb (Abways, CY5661), […] (Abways, CY5260) was incubated. The next day, the cells were washed with PBS/T for three times, horseradish enzyme-labeled goat anti-mouse second antibody (Abways, AB0102) and horseradish enzyme-labeled goat anti-rabbit second antibody (Abways, AB0101) were incubated at room temperature, then the cells were washed with PBS/T for three times, and developed by the addition of the ECL chemiluminescent substrate.

JAK1 = biological target: T2, JAK1 (Homo sapiens, UniProt P23458); assay: In vitro kinase activity experiment, JAK1; assay type: biochemical
T2 construct: purchased Eurofins
Experimental: Buffer solution ([…], pH 7.0, 0.2 mm EDTA, 10 mM mncl2), kinase to be tested, substrate of kinase to be tested, 10 mM magnesium acetate and γ33P-ATP solution, and compounds with different concentrations were added to a reaction tube in turn, then MgATP was added to initiate the enzyme reaction process, and incubated at room temperature for 40 min. Then, the reaction was terminated with 5 μl of […], and 10 μl of the reaction solution was titrated onto the Filtermat A membrane, washed with 75 mM phosphate solution for three times, each time for 5 min., and then washed with methanol once. Finally, the Filtermat A membrane was dried and the scintillation count was carried out.

[3] = test system: MOLM-13 cells (FLT3-ITD-/+); assay: Inhibition of cell proliferation by MTT experiment, MOLM-13; assay type: cell-based, human; conditions: Homo sapiens, MOLM-13, 72 h, read-out: IC50 value on cell proliferation inhibition, MOLM-13 FLT3-ITD-/+
Outline: as §1

T2 sequence (P23458 whole entry): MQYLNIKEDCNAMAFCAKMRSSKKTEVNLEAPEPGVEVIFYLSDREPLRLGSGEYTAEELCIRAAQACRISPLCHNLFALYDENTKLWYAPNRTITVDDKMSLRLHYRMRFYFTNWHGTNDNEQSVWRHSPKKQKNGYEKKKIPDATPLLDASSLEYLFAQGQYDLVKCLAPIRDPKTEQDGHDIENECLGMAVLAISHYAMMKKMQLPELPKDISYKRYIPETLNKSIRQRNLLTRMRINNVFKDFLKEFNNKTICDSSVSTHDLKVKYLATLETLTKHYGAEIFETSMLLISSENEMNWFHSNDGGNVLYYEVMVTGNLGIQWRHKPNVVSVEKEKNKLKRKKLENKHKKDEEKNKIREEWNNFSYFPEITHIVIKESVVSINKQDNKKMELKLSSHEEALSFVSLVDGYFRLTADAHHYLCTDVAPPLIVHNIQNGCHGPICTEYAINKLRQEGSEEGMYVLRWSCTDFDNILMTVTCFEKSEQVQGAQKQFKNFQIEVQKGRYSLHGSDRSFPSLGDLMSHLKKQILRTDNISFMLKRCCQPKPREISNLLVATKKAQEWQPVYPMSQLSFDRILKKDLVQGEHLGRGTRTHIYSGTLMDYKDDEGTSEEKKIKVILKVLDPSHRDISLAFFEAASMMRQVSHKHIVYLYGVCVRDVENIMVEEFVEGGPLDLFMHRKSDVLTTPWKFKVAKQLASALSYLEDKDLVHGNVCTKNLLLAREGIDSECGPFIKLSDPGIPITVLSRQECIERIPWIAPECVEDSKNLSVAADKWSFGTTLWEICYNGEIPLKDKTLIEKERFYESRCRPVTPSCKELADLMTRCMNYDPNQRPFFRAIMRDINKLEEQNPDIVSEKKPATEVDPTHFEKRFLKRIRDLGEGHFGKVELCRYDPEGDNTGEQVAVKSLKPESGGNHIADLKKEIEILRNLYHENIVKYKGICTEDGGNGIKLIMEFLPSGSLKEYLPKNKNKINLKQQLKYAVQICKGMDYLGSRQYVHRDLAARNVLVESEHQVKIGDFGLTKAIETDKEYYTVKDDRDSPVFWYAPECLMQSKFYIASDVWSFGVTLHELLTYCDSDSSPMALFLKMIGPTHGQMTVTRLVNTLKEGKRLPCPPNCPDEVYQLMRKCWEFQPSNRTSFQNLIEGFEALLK

Compound: Cc1cnc(Nc2ccc(N3CCC(N(C)CCO)CC3)c(F)c2)nc1-c1cnn(C(C)C)c1 [CLJ-44, 5-methyl-N-(3-fluoro-4-(4-N-hydroxyethyl-4-N-methylaminopiperidine-1-yl)phenyl)-4-(1-isopropyl-1H-pyrazole-4-yl) pyrimidine-2-amine]
- IC50 (SET-2 cells (JAK2 V617F)): 10 to 100 nM
- IC50 (FLT3): 4 nM
- inhibition at 0.5 µM (FLT3; 40 min, read-out: Kinase activity @ 500 nM (%) FLT3): 99%
- IC50 [1]: 1 to 10 nM
- autophosphorylation of JAK2/FLT3 (immunoblot) [2]: significantly inhibited the autophosphorylation of JAK2/FLT3 in a dose-dependent relationship
- effect on JAK subtype JAK1 (immunoblot) [2]: weak effect
- IC50 (JAK1): 37 nM
- IC50 [3]: 10 to 100 nM
